Measurements taken from US8470340B2, “Peptides presenting an epitope of a domain of factor H binding protein and methods of use” (priority 2008, dated 2013).
Ends that are not written are not given here.

Columns and labels:
JAR4 mAb [1] = test: […] of phage library clones; format: binding, murine; settings: phage captured by anti-pIII mAb, JAR4 detection, absorbance at 405 nm
Description: —Ninety-six wells plates were coated o.n. at 4° C. with 100 μl per well of a rat anti-pili (coat protein III) monoclonal antibody (concentration 1 mg/ml) in 50 mM NaHC03, 0.02% (w/v) NaN3, pH 9.6, and washed 8 times with TBST (50 mM Tris/Cl, 150 mM NaCl, pH 7.5, 0.05% (v/v) TWEEN 20). One hundred μl per well of cleared phage supernatant was added. After washing as above and incubation with antibody (concentration 1 mg/ml) in blocking buffer (5% (w/v) non-fat dry milk, 0.05% TWEEN 20 in PBS), and washing, the binding of the monoclonal antibody was detected by alkaline-phosphatase conjugated goat anti-mouse IgG antibody (Sigma, dilution 1:5000) using p-nitrophenyl phosphate substrate tablets (Sigma).
(§1) In order to identify peptides useful in eliciting antibodies having the eptitope-binding properties of the JAR 4 mAb, libraries of filamentous bacteriophage containing random peptides (9-mers and 12-mers) fused to protein VIII were screened using the JAR 4 mAb as described above. Phage eluted in the final step were used to infect host bacteria, from which the phagemids were collected and the relevant DNA sequence amplified by PCR and sequenced to identify the peptides that interacted with JAR 4 mAb. The relative binding affinity of the peptide of the isolated phage was determined by both […] and […], as described above.

JAR4 mAb [2] = test: […] of phage library clones; format: binding, murine; settings: JAR4 coated at 1 μg/ml, cleared phage supernatant, absorbance at 450 nm
Description: […]—Aliquots in 96 wells ELISA plates 100 μl per well of JAR4 mAb were diluted (1 μg/ml) in 50 mM NaHC03, 0.02% (w/v) NaN3, pH 9.6 and incubated 3 hrs at 37° C. or overnight at 4° C. After washing 8 times with 1×PBS containing 0.05% (v/v) TWEEN 20), 200 μl of blocking buffer (PBS, 0.05% TWEEN 20, 5% non-fat dry milk) was added and incubated for 1 hr at 37° C. The wash was discarded and a mixture of 100 μl cleared phage supernatant and 100 μl blocking buffer was added, to the plate and incubated for 3 hrs at 37° C. or overnight at 4° C. After washing 8 times with 1×PBS containing 0.05% (v/v) TWEEN 20), and anti-M13 peroxidase conjugate antibody (Amersham Biosciences, Buckinghamshire, UK) was added at a dilution of […] in blocking buffer (100 μl/well) and incubated for 1 h at 37° C. After further washing, antibody binding was detected by adding TMB substrate, incubated for 45 min at room temperature and stopped with […] of 1 M H2SO4 and reading absorbance at 450 nm.
as §1

anti-PorA P1.2 mAb = test: Direct binding ELISA of mAb to KLH-conjugated peptides; settings: KLH-conjugated peptide coated at 2 μg/ml
Description: (§2) The ability of anti-fHbp mAb JAR 4 to bind to the KLH-conjugated peptides was determined by a direct binding ELISA. ELISA plates were coated with 100 μl per well of a 2 μg/ml (peptide concentration) solution at 4° C. overnight. The following morning, the plates were washed and then blocked with PBS containing 1% BSA. The plates were washed and incubated with serial dilutions of mAb JAR 4 or, as a control, anti-fHbp JAR 5 or anti-PorA P1.2 mAb. After incubation (1 hour at room temperature), the plates were washed and incubated with anti-mouse IgG conjugated either with alkaline phosphatase or IRDye 800CW (1:1000). The alkaline phosphatase was detected at 420 nm wavelength after 30 min incubation with phosphatase substrate (1 mg/ml) and the IRDye was detected at 800 nm wavelength.

anti-fHbp mAb JAR 4 = test: as above; design: species or system murine; settings: for mAb Reactivity JAR 4: KLH-conjugated peptide coated at 2 μg/ml; for reactivity with JAR 4 by ELISA: KLH-conjugated peptides, in words
Description: as §2

anti-fHbp JAR 5 = test: as above; design: species or system murine; settings: for mAb Reactivity JAR 5: KLH-conjugated peptide coated at 2 μg/ml; for binding to control mAb anti-fHbp JAR 5: KLH-conjugated peptides, in words
Description: as §2

JAR 4 = test: ELISA binding of mAb to site-specific mutant recombinant v.1 fHbp; design: species or system murine; settings: v.1 fHbp (gene from MC58) alanine mutants
Description: Site-specific mutagenesis was used to test the role of amino acid residues involved in the JAR 4 anti-fHbp mAb epitope. Mutagenesis was performed using the QuikChange II kit (Stratagene) using 10 ng of plasmid template and the manufacturer's protocols. For testing residues putatively involved in mAb epitopes, mutagenesis reactions were performed on pET21-based plasmids encoding a wild-type fHbp gene. Site-specific mutagenesis was used to introduce the H26A and K27A substitution into the pET21 plasmid encoding v.1 fHbp from MC58. Mutant fHbp genes were confirmed by DNA sequencing as described for the wild-type plasmids, above.
Site-directed mutagenesis of residues 25, 26 and 27 was performed, each of which was individually changed to alanine in fHbp from the v.1 group (gene from MC58). These mutants were created using the non-signal containing sequence from strain MC58 (MVAAD . . . GLAAKQ) (SEQ ID NO:73), and are referred to as D25A, H26A and K27A, respectively. The amino acid sequences of the portions of the A domains of these mutants is provided in FIG. 7, Panel A. Results of the binding experiment between mutated fHbp and the various JAR mAbs are shown in FIG. 6.

Molecule	SEPHELISA (JAR4 mAb [1])	PHAGELISA (JAR4 mAb [2])	other results
18 (VGWCGFERCSSA) [Clone 18]	+ (O.D. from 0.15 to 0.5)	+ (O.D. from 0.15 to 0.5)	
10 (HVHRGSQGGQRQ) [Clone 10]	+ (O.D. from 0.15 to 0.5)	+ (O.D. from 0.15 to 0.5)	
11 (LEWCGFSRCEVG) [Clone 11]	+ (O.D. from 0.15 to 0.5)	+ (O.D. from 0.15 to 0.5)	
AEGEFWTLAVFDHKAQTGDPAKC (also: conjugated to KLH) [JAR 4 Phage 2, synthetic peptide conjugated to keyhole limpet hemocyanin (KLH)]			mAb Reactivity P1.2 (anti-PorA P1.2 mAb): − (no detectable binding at 50 μg/ml); mAb Reactivity JAR 4 (anti-fHbp mAb JAR 4): ++ (50% of maximal binding at < 1 μg/ml); reactivity with JAR 4 by ELISA (anti-fHbp mAb JAR 4): reacted
2 (CGGVYDDKTGCA) [Clone 2]	++++ (O.D. from 2 to 3.5)	++ (O.D. from 0.5 to 1)	
3 (HDHKTQLDP) [Clone 3]	++++ (O.D. from 2 to 3.5)	++++ (O.D. from 2 to 3.5)	
4 (WTLAVFDHKAQT) [Clone 4]	+++ (O.D. from 1 to 2)	+++ (O.D. from 1 to 2)	
ALTAPLDHKDKGLQSDPAKC (also: conjugated to KLH) [JAR 4 Native, reference compound]			mAb Reactivity JAR 4 (anti-fHbp mAb JAR 4): − (no detectable binding at 50 μg/ml); mAb Reactivity JAR 5 (anti-fHbp JAR 5): − (no detectable binding at 50 μg/ml)
AEGEFHDHKTQLDPDPAKC (also: conjugated to KLH) [JAR 4 Phage 1, synthetic peptide conjugated to keyhole limpet hemocyanin (KLH)]			mAb Reactivity P1.2 (anti-PorA P1.2 mAb): − (no detectable binding at 50 μg/ml); mAb Reactivity JAR 4 (anti-fHbp mAb JAR 4): ++ (50% of maximal binding at < 1 μg/ml); reactivity with JAR 4 by ELISA (anti-fHbp mAb JAR 4): reacted; mAb Reactivity JAR 5 (anti-fHbp JAR 5): − (no detectable binding at 50 μg/ml); binding to control mAb anti-fHbp JAR 5 (anti-fHbp JAR 5): no detectable binding
1 (HDHKLEGTE) [Clone 1]	++++ (O.D. from 2 to 3.5)	+++ (O.D. from 1 to 2)	
HFVQQTPQSQDPAKC (also: conjugated to KLH) [PorA P1.2, control peptide derived from loop 4 of PorA VR2, strain 2996, conjugated to KLH, reference compound]			mAb Reactivity P1.2 (anti-PorA P1.2 mAb): + (50% of maximal binding at 1-10 μg/ml); mAb Reactivity JAR 4 (anti-fHbp mAb JAR 4): − (no detectable binding at 50 μg/ml)
AQAFQTPVHSDPAKC (also: conjugated to KLH) [GNA 33, control peptide, a mimetic of PorA P1.2, conjugated to KLH, reference compound]			mAb Reactivity P1.2 (anti-PorA P1.2 mAb): + (50% of maximal binding at 1-10 μg/ml); mAb Reactivity JAR 4 (anti-fHbp mAb JAR 4): − (no detectable binding at 50 μg/ml)
12 (KDHRHMLWPEES) [Clone 12]	+ (O.D. from 0.15 to 0.5)	+ (O.D. from 0.15 to 0.5)	
16 (HDHKHGFQEPAS) [Clone 16]	+ (O.D. from 0.15 to 0.5)	+ (O.D. from 0.15 to 0.5)	
TKDDPLKQHLALSAGDPAKC (also: conjugated to KLH) [JAR 4 Scrambled, scrambled native fHbp peptide, negative control, conjugated to KLH, reference compound]			mAb Reactivity P1.2 (anti-PorA P1.2 mAb): − (no detectable binding at 50 μg/ml); mAb Reactivity JAR 4 (anti-fHbp mAb JAR 4): − (no detectable binding at 50 μg/ml); mAb Reactivity JAR 5 (anti-fHbp JAR 5): − (no detectable binding at 50 μg/ml)
AEGEFHDHKLEGTEDPAKC (also: conjugated to KLH) [JAR 4 Phage 3, synthetic peptide conjugated to keyhole limpet hemocyanin (KLH)]			mAb Reactivity JAR 4 (anti-fHbp mAb JAR 4): + (50% of maximal binding at 1-10 μg/ml); reactivity with JAR 4 by ELISA (anti-fHbp mAb JAR 4): reacted; mAb Reactivity JAR 5 (anti-fHbp JAR 5): − (no detectable binding at 50 μg/ml); binding to control mAb anti-fHbp JAR 5 (anti-fHbp JAR 5): no detectable binding
7 (WRWCGFERCPEG) [Clone 7]	++ (O.D. from 0.5 to 1)	+ (O.D. from 0.15 to 0.5)	
6 (FHDHKTANQ) [Clone 6]	++ (O.D. from 0.5 to 1)	+ (O.D. from 0.15 to 0.5)	
5 (GCMGYDHRSGCV) [Clone 5]	++ (O.D. from 0.5 to 1)	+ (O.D. from 0.15 to 0.5)	
13 (LCQERLSQRCGV) [Clone 13]	+ (O.D. from 0.15 to 0.5)	+ (O.D. from 0.15 to 0.5)	
17 (SDWGWGGRAEQH) [Clone 17]	+ (O.D. from 0.15 to 0.5)	+ (O.D. from 0.15 to 0.5)	
15 (RCQVQVMVLCAL) [Clone 15]	+ (O.D. from 0.15 to 0.5)	+ (O.D. from 0.15 to 0.5)	
9 (NDERQMSDWYRA) [Clone 9]	+ (O.D. from 0.15 to 0.5)	+ (O.D. from 0.15 to 0.5)	
8 (HDHRIWPLDVTA) [Clone 8]	++ (O.D. from 0.5 to 1)	+ (O.D. from 0.15 to 0.5)	
14 (WVLCGQGCGGTA) [Clone 14]	+ (O.D. from 0.15 to 0.5)	+ (O.D. from 0.15 to 0.5)	
D25A: recombinant v.1 fHbp (gene from MC58) with residue 25 changed to alanine (protein) CSSGGGGVAADIGAGLADALTAPLAHKDKGLQSLTLDQSVRKNEKLKLAAQGAEKTYGNGDSLNTGKLKNDKVSRFDFIRQIEVDGQLITLESGEFQVYKQSHSALTAFQTEQIQDSEHSGKMVAKRQFRIGDIAGEHTSFDKLPEGGRATYRGTAFGSDDAGGKLTYTIDFAAKQGNGKIEHLKSPELNVDLAAADIKPDGKRHAVISGSVLYNQAEKGSYSLGIFGGKAQEVAGSAEVKTVNGIRHIGLAAKQHHHHHH			decrease in JAR 4-reactivity compared with wild-type recombinant fHbp (JAR 4): approximately 1000 fold
